Measurements from ChEMBL document CHEMBL1201862, “PubChem BioAssay data set” (2004).
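Grown in 96-well plates, cells were treated for 48 hours with each compound at five concentrations. Insufficient inhibition: endpoint recorded as highest concentration tested. GI50 = concentration required for 50% inhibition of growth.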 Calls of active or inactive are those of the source. Rule as the data show it: active = GI50 up to about 1.1 µM and inactive = higher.

Key:
Test in all cases: DTP human tumour cell line panel, 48 h
SNB-19 = system: SNB-19
SK-MEL-2 = system: SK-MEL-2
UACC-257 = system: UACC-257
KM12 = system: KM12
ACHN = system: ACHN
UACC-62 = system: UACC-62
786-0 = system: 786-0
OVCAR-5 = system: OVCAR-5
NCI-H23 = system: NCI-H23
Malme-3M = system: Malme-3M
SF-295 = system: SF-295
U-251 = system: U-251
SF-539 = system: SF-539
HT-29 = system: HT-29
DU-145 = system: DU-145
EKVX = system: EKVX
PC-3 = system: PC-3
SN12C = system: SN12C
NCI-H522 = system: NCI-H522

| SMILES | GI50 (SNB-19) | GI50 (SK-MEL-2) | GI50 (UACC-257) | GI50 (KM12) | GI50 (ACHN) | GI50 (UACC-62) | GI50 (786-0) | GI50 (OVCAR-5) | GI50 (NCI-H23) | GI50 (Malme-3M) | GI50 (SF-295) | GI50 (U-251) | GI50 (SF-539) | GI50 (HT-29) | GI50 (DU-145) | GI50 (EKVX) | GI50 (PC-3) | GI50 (SN12C) | GI50 (NCI-H522) |
| --- | --- | --- | --- | --- | --- | --- | --- | --- | --- | --- | --- | --- | --- | --- | --- | --- | --- | --- | --- |
| CCCCS/C(=C(/C#N)C(N)=O)c1cc2c([nH]1)CCCC2 | 19.1 µM (inactive) | 12.1 µM (inactive) | 14.3 µM (inactive) | 5.78 µM (inactive) | 16.3 µM (inactive) | 6.52 µM (inactive) | 11.5 µM (inactive) | 29 µM (inactive) | 16.7 µM (inactive) | 11.4 µM (inactive) | 12.4 µM (inactive) | 15.7 µM (inactive) | 14.7 µM (inactive) | 4.69 µM (inactive) | 12.1 µM (inactive) | 11.2 µM (inactive) | 11.4 µM (inactive) | 23.9 µM (inactive) |  |
| CCCCCCCCCCCCCCCc1nnc(SCC(=O)O)[nH]1 | 49.7 µM (inactive) | 37.9 µM (inactive) | > 100 µM (inactive) | 48.3 µM (inactive) | 47.3 µM (inactive) | 42.2 µM (inactive) | 18.5 µM (inactive) |  | > 100 µM (inactive) | > 100 µM (inactive) | 40 µM (inactive) | 26.4 µM (inactive) | 48 µM (inactive) | 31.7 µM (inactive) |  | > 100 µM (inactive) |  | 71.9 µM (inactive) | 41.6 µM (inactive) |
| O=c1[nH]nc(-c2ccccc2)n1-n1cccc1 | > 100 µM (inactive) | > 100 µM (inactive) | > 100 µM (inactive) | > 100 µM (inactive) | > 100 µM (inactive) | > 100 µM (inactive) | > 100 µM (inactive) | > 100 µM (inactive) |  | > 100 µM (inactive) | > 100 µM (inactive) | > 100 µM (inactive) |  | > 100 µM (inactive) | > 100 µM (inactive) | > 100 µM (inactive) | > 100 µM (inactive) | > 100 µM (inactive) | > 100 µM (inactive) |
| COc1ccc(/C=C2\N=C(SC)N(CN3CCCCC3)C2=O)cc1 | > 100 µM (inactive) | > 100 µM (inactive) |  | > 100 µM (inactive) | > 100 µM (inactive) | > 100 µM (inactive) | > 100 µM (inactive) | > 100 µM (inactive) | > 100 µM (inactive) | > 100 µM (inactive) | > 100 µM (inactive) | > 100 µM (inactive) |  | > 100 µM (inactive) | > 100 µM (inactive) | > 100 µM (inactive) | > 100 µM (inactive) | > 100 µM (inactive) | > 100 µM (inactive) |
| c1cc(-c2ccc(-c3ccc(-c4ccc(-c5cccc6nsnc56)[nH]4)c4nsnc34)[nH]2)c2nsnc2c1 | > 100 µM (inactive) | > 100 µM (inactive) |  | > 100 µM (inactive) | > 100 µM (inactive) | > 100 µM (inactive) | > 100 µM (inactive) | > 100 µM (inactive) | > 100 µM (inactive) | > 100 µM (inactive) | > 100 µM (inactive) | > 100 µM (inactive) |  | > 100 µM (inactive) | > 100 µM (inactive) | > 100 µM (inactive) | > 100 µM (inactive) | > 100 µM (inactive) | > 100 µM (inactive) |
| Cc1nn(C(=O)c2ccncc2)c2c1C(c1ccc([N+](=O)[O-])cc1)SC(=N)N2 (stereo not given) | > 100 µM (inactive) | > 100 µM (inactive) | > 100 µM (inactive) | > 100 µM (inactive) | > 100 µM (inactive) | > 100 µM (inactive) | > 100 µM (inactive) | > 100 µM (inactive) | > 100 µM (inactive) | > 100 µM (inactive) | > 100 µM (inactive) | > 100 µM (inactive) | > 100 µM (inactive) | > 100 µM (inactive) | > 100 µM (inactive) | > 100 µM (inactive) | > 100 µM (inactive) | > 100 µM (inactive) |  |
| CCSC(SCC)=C1C(=O)N(c2ccccc2)N=C1C | 25.2 µM (inactive) | 15.8 µM (inactive) | 4.06 µM (inactive) | 19.3 µM (inactive) | 15.7 µM (inactive) | 13.7 µM (inactive) | 13.1 µM (inactive) | 15.9 µM (inactive) | 18.3 µM (inactive) | 10.4 µM (inactive) | 23.7 µM (inactive) |  |  | 19.1 µM (inactive) |  | 13.7 µM (inactive) |  | 16.1 µM (inactive) | 1.95 µM (inactive) |
| O=[N+]([O-])/C(C(Cl)=C(Cl)Cl)=C(\Nc1cccc2ccccc12)Sc1ccccc1 | 18.8 µM (inactive) | 14.6 µM (inactive) | 14.8 µM (inactive) | 13.2 µM (inactive) | 13.9 µM (inactive) | 10.8 µM (inactive) | 18.4 µM (inactive) | 20.3 µM (inactive) | 16 µM (inactive) | 17.5 µM (inactive) | 15.2 µM (inactive) | 11.4 µM (inactive) | 19.3 µM (inactive) | 19.5 µM (inactive) | 13.2 µM (inactive) | 11.4 µM (inactive) | 13.5 µM (inactive) | 20.2 µM (inactive) |  |
| CN1CCN(C(=S)N(C)C(=O)c2ccc(Cl)cc2)CC1 | > 100 µM (inactive) | > 100 µM (inactive) | > 100 µM (inactive) | > 100 µM (inactive) | 0.132 µM (active) | > 100 µM (inactive) | > 100 µM (inactive) | > 100 µM (inactive) | > 100 µM (inactive) | > 100 µM (inactive) | > 100 µM (inactive) | > 100 µM (inactive) |  | > 100 µM (inactive) | > 100 µM (inactive) |  |  | > 100 µM (inactive) | > 100 µM (inactive) |
| Nc1c(C(=O)O)c2ccc([N+](=O)[O-])cc2c(=O)n1-c1nc2ccccc2s1 | > 100 µM (inactive) | > 100 µM (inactive) |  | > 100 µM (inactive) | > 100 µM (inactive) | > 100 µM (inactive) | > 100 µM (inactive) | > 100 µM (inactive) | > 100 µM (inactive) | > 100 µM (inactive) | > 100 µM (inactive) | > 100 µM (inactive) |  | > 100 µM (inactive) | > 100 µM (inactive) | > 100 µM (inactive) | > 100 µM (inactive) | > 100 µM (inactive) | > 100 µM (inactive) |
| O=C1NC(=S)NC(=O)C1C(c1ccc([N+](=O)[O-])cc1)C1C(=O)NC(=S)NC1=O.c1ccncc1 | > 100 µM (inactive) | > 100 µM (inactive) | > 100 µM (inactive) | > 100 µM (inactive) | > 100 µM (inactive) | > 100 µM (inactive) | > 100 µM (inactive) | > 100 µM (inactive) | > 100 µM (inactive) |  | > 100 µM (inactive) | > 100 µM (inactive) |  | > 100 µM (inactive) | > 100 µM (inactive) | > 100 µM (inactive) | > 100 µM (inactive) | > 100 µM (inactive) | > 100 µM (inactive) |
| CC1(c2ccccc2)CCN(C2CC2)CO1 (stereo not given) | > 100 µM (inactive) | > 100 µM (inactive) | 22.4 µM (inactive) | 14.9 µM (inactive) | 17.9 µM (inactive) | 18.1 µM (inactive) | 11.4 µM (inactive) | 17.5 µM (inactive) | 33 µM (inactive) | 19.9 µM (inactive) | > 100 µM (inactive) | > 100 µM (inactive) |  | 17.9 µM (inactive) | 29.6 µM (inactive) | 20.1 µM (inactive) | > 100 µM (inactive) | 16.8 µM (inactive) |  |
| NC(CCCCNC(=O)OCc1ccccc1)C(=O)NC(CCCCNC(=O)OCc1ccccc1)C(=O)ON1C(=O)CCC1=O (stereo not given) | > 100 µM (inactive) | > 100 µM (inactive) | > 100 µM (inactive) | > 100 µM (inactive) | > 100 µM (inactive) | > 100 µM (inactive) | > 100 µM (inactive) | > 100 µM (inactive) | > 100 µM (inactive) | 61.4 µM (inactive) |  | > 100 µM (inactive) |  | > 100 µM (inactive) |  | > 100 µM (inactive) | > 100 µM (inactive) | > 100 µM (inactive) |  |
| CC1=NN=C(N)NC1=CC(Sc1ccc(Cl)cc1)c1c(O)ccc2ccccc12 (stereo not given) | 20.6 µM (inactive) | 5.02 µM (inactive) | 20.9 µM (inactive) | 14.5 µM (inactive) | 5.16 µM (inactive) | 9.35 µM (inactive) | 25.5 µM (inactive) | 23.1 µM (inactive) | 15.1 µM (inactive) | 3.88 µM (inactive) | 4.21 µM (inactive) | 18.3 µM (inactive) |  | 20.5 µM (inactive) | 16.1 µM (inactive) | 18 µM (inactive) | 16.1 µM (inactive) | 19 µM (inactive) | 15.5 µM (inactive) |
| Nc1nonc1-c1noc(-c2nonc2N)[n+]1[O-] | > 100 µM (inactive) | > 100 µM (inactive) | > 100 µM (inactive) | 58.9 µM (inactive) | 33.8 µM (inactive) | 66.7 µM (inactive) | 37.1 µM (inactive) | 33.7 µM (inactive) | 77.4 µM (inactive) | 20.4 µM (inactive) | > 100 µM (inactive) | > 100 µM (inactive) |  | 16 µM (inactive) | > 100 µM (inactive) | 30.8 µM (inactive) | 69.7 µM (inactive) | > 100 µM (inactive) | 13.1 µM (inactive) |
| CCOC1CC(C)N(C(=O)c2ccccc2)O1 (stereo not given) | > 100 µM (inactive) |  |  | > 100 µM (inactive) | > 100 µM (inactive) | > 100 µM (inactive) | > 100 µM (inactive) | > 100 µM (inactive) | > 100 µM (inactive) | > 10 µM (inactive) | > 100 µM (inactive) | > 100 µM (inactive) | > 100 µM (inactive) | > 100 µM (inactive) | > 100 µM (inactive) | > 100 µM (inactive) | 80.2 µM (inactive) | > 100 µM (inactive) |  |
